Test results as given in patent EP0435794A1, “Alkenyl- or heteroaryl thio, sulfone, sulfoxy herbicides” (RHONE-POULENC AGROCHIMIE, priority 1989, dated 1991).

Columns and labels:
Format in all cases: in vivo
ALISMA CANALICULATUM = test: Exemple D: herbicide application pre or post emergence on submerged plants (rice paddy model); conditions: 2-leaf stage, 24 days
From the text: (§1) Exemple D : Application herbicide en pré ou post levée d'espèces végétales submergées (modèle rizière)
(§2) Dans des pots de 9 x 9 x 9 cm remplis de terre agricole on sème un nombre de graines ou on plante un nombre de bulbes ou rhizomes déterminé en fonction de l'espèce végétale ou de la grosseur des organes. Pour le riz, 4 plants au stade 2-3 feuilles sont transplantés dans un pot rempli de terre végétale 4 jours avant le traitement.
(§3) Les pots sont ensuite immergés dans un bac de taille adapté aux pots de manière à ce que l'eau recouvre de 1 à 2 cm la surface du sol.
(§4) Le stade de traitement est le stade prélevée ou 1 à 2 feuilles développées des adventices. Le traitement est effectué par répartition de la bouillie dans l'eau de submersion en quantité correspondant à une dose d'application de 500 l/ha et contenant la matière active à la concentration requise.
(§5) La bouillie utilisée pour le traitement est une solution ou suspension de la matière active dans un mélange acétone/eau en proportion 50/50, en présence de 0,05 % en poids de Cemulsol NP 10 (agent tensioactif constitué d'alkylphénol polyéthoxylé, notamment de nonylphénol polyéthoxylé) et 0,04 % en poids de tween 20 (agent tensio-actif constitué d'un oléate de dérivé polyoxyéthyléné du sorbitol).
(§6) Dans le cas d'une suspension, celle-ci est obtenue en mélangeant et broyant les ingrédients dans un microniseur de façon à obtenir une grosseur moyenne de particules inférieures à 40 microns.
(§7) Le niveau d'eau de submersion est ensuite maintenu par apport d'eau tout au long de la durée de l'expérimentation soit […]. Les bacs contenant les pots sont placés dans une serre régulée en température à 18°C la nuit et 22°C le jour et en humidité à 70 % d'humidité relative.
(§8) Au bout de 24 jours, on compte le nombre de plantes vivantes dans les pots traités par la bouillie contenant la matière active à tester et le nombre de plantes vivantes dans un pot témoin traité selon les mêmes conditions, mais au moyen d'une bouillie ne contenant pas de matière active. On mesure ainsi un pourcentage (D) des destructions du nombre de pieds dans le pot traité par rapport au nombre de plantes dans les pots non traités (témoin). On mesure, sur les plantes traitées restantes, le pourcentage de réduction de taille (RT) par rapport aux plantes témoin. Le pourcentage du volume foliaire non détruit par le produit est donc donné par la formule: ([100-D] x [100-RT])/(100)= A [formula]
(§9) Cette valeur A est transformée en notation de 0 à 5 selon l'échelle suivante:
(§10) Les résultats obtenus sont présentés dans le tableau suivant pour des doses d'application de 500, 1000 ou 2000 g de matière active par hectare.

Echinochloa crus galli [1] = test: as above; conditions: 24 days; for % d'efficacité ECHINOCHLOA CRUS GALLI (1 feuille): 1-leaf stage; for % d'efficacité ECHINOCHLOA CRUS GALLI (prélevée): pre-emergence
From the text: as §1, §2, §3, §4, §5, §6, §7, §8, §9, §10

CYPERUS SEROTINUS = test: as above; conditions: 24 days; for % d'efficacité CYPERUS SEROTINUS (1 feuille): 1-leaf stage; for % d'efficacité CYPERUS SEROTINUS (prélevée): pre-emergence
From the text: as §1, §2, §3, §4, §5, §6, §7, §8, §9, §10

Alopecurus myosuroïdes = test: Exemple A: herbicide application, pre-emergence; conditions: dose 4 Kg m.a./ha, notation 0 à 5 after 24 days
From the text: (§11) Exemple A - Application herbicide, en prélevée des espèces végétales
(§12) Dans des pots de 7 x 7 x 8 cm remplis de terre agricole légère, on sème un nombre de graines déterminé en fonction de l'espèce végétale et de la grosseur de la graine.
(§13) Les pots sont traités par pulvérisation de bouillie en quantité correspondant à une dose volumique d'application de 500 l/ha et contenant la matière active à la concentration désirée.
(§14) Le traitement avec la bouillie est donc effectué sur des graines non recouvertes de terre (on utilise le terme de bouillie pour désigner, en général, les compositions diluées à l'eau, telles qu'on les applique sur les végétaux).
as §5, with “proportions” for “proportion”, “cemulsol” for “Cemulsol”, “tensio-actif)” for “tensioactif”
(§15) Dans le cas d'une suspension, celle-ci est obtenue en mélangeant et broyant les ingrédients dans un microniseur de façon à obtenir une grosseur moyenne de particules inférieure à 40 microns.
(§16) Après traitement, on recouvre les graines d'une couche de terre d'environ 3 mm d'épaisseur.
(§17) Les pots sont alors placés dans des bacs destinés à recevoir l'eau d'arrosage, en subirrigation, et maintenus pendant 24 jours à température ambiante sous 70 % d'humidité relative.
(§18) Le relevé est effectué de la façon suivante:
(§19) Au bout de 24 jours, on mesure un pourcentage (D) des destructions du nombre de pieds dans le pot traité par rapport au nombre de plantes dans les pots non traités (témoin). On mesure, sur les plantes traitées restantes, le pourcentage de réduction de taille (RT) par rapport aux plantes témoin.
(§20) Le pourcentage du volume foliaire non détruit par le produit est donc donné par la formule: ([100-D] x [100-RT])/(100)= A [formula]
as §9
(§21) Les résultats obtenus sont présentés après l'exemple B pour des doses d'application de 4000 g/ha à 1000 g/ha.
(§22) Les espèces végétales utilisées dans ces exemples A et B sont: […]

Avena fatua = test: Exemple A: herbicide application, pre-emergence; conditions: dose 4 Kg m.a./ha, notation 0 à 5 after 24 days
From the text: as §11, §12, §13, §14
as §5, with “proportions” for “proportion”, “cemulsol” for “Cemulsol”, “tensio-actif)” for “tensioactif”
as §15, §16, §17, §18, §19, §20, §9, §21, §22

Echinochloa crus galli [2] = test: Exemple A: herbicide application, pre-emergence; conditions: dose 4 Kg m.a./ha, notation 0 à 5 after 24 days
From the text: as §11, §12, §13, §14
as §5, with “proportions” for “proportion”, “cemulsol” for “Cemulsol”, “tensio-actif)” for “tensioactif”
as §15, §16, §17, §18, §19, §20, §9, §21, §22

Digitaria sanguinalis = test: Exemple A: herbicide application, pre-emergence; conditions: dose 4 Kg m.a./ha, notation 0 à 5 after 24 days
From the text: as §11, §12, §13, §14
as §5, with “proportions” for “proportion”, “cemulsol” for “Cemulsol”, “tensio-actif)” for “tensioactif”
as §15, §16, §17, §18, §19, §20, §9, §21, §22

Cyperus esculentus = test: Exemple A: herbicide application, pre-emergence; conditions: dose 4 Kg m.a./ha, notation 0 à 5 after 24 days
From the text: as §11, §12, §13, §14
as §5, with “proportions” for “proportion”, “cemulsol” for “Cemulsol”, “tensio-actif)” for “tensioactif”
as §15, §16, §17, §18, §19, §20, §9, §21, §22

[3] = system: ORYSA SATIVA Cv Nihonbare; test: Exemple D: herbicide application on submerged plants (rice paddy model), transplanted rice; conditions: rice transplanted 4 days before treatment, 24 days
From the text: as §1, §2, §3, §4, §5, §6, §7, §8, §9, §10
COMPOSE N°5/RIZ (transplanté 4 jours avant traitement)

[4] = 500 g de matière active par hectare
[5] = 1000 g de matière active par hectare
[6] = 2000 g de matière active par hectare

How did the “% d'efficacité ALISMA CANALICULATUM (2 feuilles)” value (ALISMA CANALICULATUM; [4]) turn out when `C=C(CS(=O)(=O)c1sccc1Cl)c1cccc(F)c1` [compound 5, 1-[(3-chloro 2-thiényl)sulfonyl] 2-(3-fluorophényl) 2-propène] was run?
Its value is 3 (30 à 50).

What about the “% d'efficacité ALISMA CANALICULATUM (2 feuilles)” value (ALISMA CANALICULATUM; [5]) of the same molecule?
Its value is 4 (10 à 30).

What about the “% d'efficacité ALISMA CANALICULATUM (2 feuilles)” value (ALISMA CANALICULATUM; [6]) of the same molecule?
Its value is 4 (10 à 30).

And the “% d'efficacité ECHINOCHLOA CRUS GALLI (1 feuille)” value (Echinochloa crus galli [1]; [4])?
Its value is 4 (10 à 30).

What about the “% d'efficacité ECHINOCHLOA CRUS GALLI (1 feuille)” value (Echinochloa crus galli [1]; [5]) of the same molecule?
The value was 4 (10 à 30).

And the “% d'efficacité ECHINOCHLOA CRUS GALLI (1 feuille)” value (Echinochloa crus galli [1]; [6])?
The value was 4 (10 à 30).

What about the “% d'efficacité ECHINOCHLOA CRUS GALLI (prélevée)” value (Echinochloa crus galli [1]; [4]) of the same molecule?
Its value is 5 (0 à 10).

And the “% d'efficacité ECHINOCHLOA CRUS GALLI (prélevée)” value (Echinochloa crus galli [1]; [5])?
The value was 5 (0 à 10).

What about the “% d'efficacité ECHINOCHLOA CRUS GALLI (prélevée)” value (Echinochloa crus galli [1]; [6]) of the same molecule?
The value was 5 (0 à 10).

What about the “% d'efficacité CYPERUS SEROTINUS (1 feuille)” value (CYPERUS SEROTINUS; [4]) of the same molecule?
The value was 3 (30 à 50).

And the “% d'efficacité CYPERUS SEROTINUS (1 feuille)” value (CYPERUS SEROTINUS; [5])?
Its value is 4 (10 à 30).

What about the “% d'efficacité CYPERUS SEROTINUS (1 feuille)” value (CYPERUS SEROTINUS; [6]) of the same molecule?
Its value is 5 (0 à 10).

What about the “% d'efficacité CYPERUS SEROTINUS (prélevée)” value (CYPERUS SEROTINUS; [4]) of the same molecule?
Its value is 2 (50 à 70).

And the “% d'efficacité CYPERUS SEROTINUS (prélevée)” value (CYPERUS SEROTINUS; [5])?
Its value is 5 (0 à 10).

And the “% d'efficacité CYPERUS SEROTINUS (prélevée)” value (CYPERUS SEROTINUS; [6])?
The value was 5 (0 à 10).

What about the “ACTIVITE HERBICIDE DE PRELEVEE ALO” value (Alopecurus myosuroïdes) of the same molecule?
The value was 5 (O à 10).

And the “ACTIVITE HERBICIDE DE PRELEVEE AVE” value (Avena fatua)?
The value was 5 (O à 10).

What about the “ACTIVITE HERBICIDE DE PRELEVEE ECH” value (Echinochloa crus galli [2]) of the same molecule?
The value was 5 (O à 10).

What about the “ACTIVITE HERBICIDE DE PRELEVEE DIG” value (Digitaria sanguinalis) of the same molecule?
The value was 5 (O à 10).

And the “ACTIVITE HERBICIDE DE PRELEVEE CYP” value (Cyperus esculentus)?
Its value is 5 (O à 10).

What about the “% d'efficacité ORYSA SATIVA Cv Nihonbare” value [3, 4] of the same molecule?
Its value is 0 (90 à 100).

And the “% d'efficacité ORYSA SATIVA Cv Nihonbare” value [3, 5]?
The value was 0 (90 à 100).

What about the “% d'efficacité ORYSA SATIVA Cv Nihonbare” value [3, 6] of the same molecule?
Its value is 0 (90 à 100).
